# Results from patent publication US20250098679A1, “HERBICIDAL PYRIDONE DERIVATIVES” (SYNGENTA CROP PROTECTION AG, priority 2021, published 2025).
# How the values were obtained:
# Assay type in all cases: in vivo
# Details in all cases: evaluated after 13 days
# Zea mays (ZEAMX) [1] = experiment: Post-emergence Test, Zea mays (ZEAMX); parameters: key to percentage damage caused to the plant, ZEAMX (five-point scale): 5=81-100%, 4=61-80%, 3=41-60%, 2=21-40%, 1=0-20% damage
# How it was run: (§1)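 Percent plant damage was rated 13 days post-application on a 1–5 scale (1=0-20%, 5=81-100%). Application used an aqueous acetone (50:50)/0.5% Tween 20 spray, normally 1000 g/ha, with controlled glasshouse conditions (24/16 °C, 14 h light, 65% humidity).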
# [2] = tested on: Amaranthus retoflexus (AMARE); experiment: Post-emergence Test, Amaranthus retoflexus (AMARE); parameters: key to percentage damage caused to the plant, AMARE (five-point scale): 5=81-100%, 4=61-80%, 3=41-60%, 2=21-40%, 1=0-20% damage
# How it was run: as §1
# [3] = tested on: Ipomoea hederacea (IPOHE); experiment: Pre-emergence Test, Ipomoea hederacea (IPOHE)
# [4] = tested on: Ipomoea hederacea (IPOHE); experiment: Post-emergence Test, Ipomoea hederacea (IPOHE); parameters: key to percentage damage caused to the plant, IPOHE (five-point scale): 5=81-100%, 4=61-80%, 3=41-60%, 2=21-40%, 1=0-20% damage
# How it was run: as §1
# [5] = tested on: Amaranthus palmeri (AMAPA); experiment: Post-emergence Test, Amaranthus palmeri (AMAPA); parameters: key: 5=81-100%, 4=61-80%, 3=41-60%, 2=21-40%, 1=0-20% damage
# How it was run: as §1
# Setaria faberi (SETFA) [6] = experiment: Post-emergence Test, Setaria faberi (SETFA); parameters: key to percentage damage caused to the plant, SETFA (five-point scale): 5=81-100%, 4=61-80%, 3=41-60%, 2=21-40%, 1=0-20% damage
# How it was run: as §1
# [7] = tested on: Echinochloa crus-galli (ECHCG); experiment: Post-emergence Test, Echinochloa crus-galli (ECHCG); parameters: key to percentage damage caused to the plant, ECHCG (five-point scale): 5=81-100%, 4=61-80%, 3=41-60%, 2=21-40%, 1=0-20% damage
# How it was run: as §1
# [8] = tested on: Echinochloa crus-galli (ECHCG); experiment: Pre-emergence Test, Echinochloa crus-galli (ECHCG)
# [9] = tested on: Amaranthus palmeri (AMAPA); experiment: Pre-emergence Test, Amaranthus palmeri (AMAPA)
# [10] = tested on: Amaranthus retoflexus (AMARE); experiment: Pre-emergence Test, Amaranthus retoflexus (AMARE)
# Setaria faberi (SETFA) [11] = experiment: Pre-emergence Test, Setaria faberi (SETFA)
# Zea mays (ZEAMX) [12] = experiment: Pre-emergence Test, Zea mays (ZEAMX)
Compound,"percentage damage caused to the plant, ZEAMX (five-point scale) (Zea mays (ZEAMX) [1]; 250 g/Ha)","percentage damage caused to the plant, AMARE (five-point scale) ([2]; 250 g/Ha)","Pre-emergence Test IPOHE, percentage damage caused to the plant (five-point scale) ([3]; 250 g/Ha (*))","percentage damage caused to the plant, IPOHE (five-point scale) ([4]; 250 g/Ha)","percentage damage caused to the plant, AMAPA (five-point scale) ([5]; 250 g/Ha)","percentage damage caused to the plant, SETFA (five-point scale) (Setaria faberi (SETFA) [6]; 250 g/Ha)","percentage damage caused to the plant, ECHCG (five-point scale) ([7]; 250 g/Ha)","Pre-emergence Test ECHCG, percentage damage caused to the plant (five-point scale) ([8]; 250 g/Ha (*))","Pre-emergence Test AMAPA, percentage damage caused to the plant (five-point scale) ([9]; 250 g/Ha (*))","Pre-emergence Test AMARE, percentage damage caused to the plant (five-point scale) ([10]; 250 g/Ha (*))","Pre-emergence Test SETFA, percentage damage caused to the plant (five-point scale) (Setaria faberi (SETFA) [11]; 250 g/Ha (*))","Pre-emergence Test ZEAMX, percentage damage caused to the plant (five-point scale) (Zea mays (ZEAMX) [12]; 250 g/Ha (*))","percentage damage caused to the plant, ZEAMX (five-point scale) (Zea mays (ZEAMX) [1]; 1000 g/ha)","percentage damage caused to the plant, AMARE (five-point scale) ([2]; 1000 g/ha)","Pre-emergence Test IPOHE, percentage damage caused to the plant (five-point scale) ([3]; 1000 g/ha)","percentage damage caused to the plant, IPOHE (five-point scale) ([4]; 1000 g/ha)","percentage damage caused to the plant, AMAPA (five-point scale) ([5]; 1000 g/ha)","percentage damage caused to the plant, SETFA (five-point scale) (Setaria faberi (SETFA) [6]; 1000 g/ha)","percentage damage caused to the plant, ECHCG (five-point scale) ([7]; 1000 g/ha)","Pre-emergence Test ECHCG, percentage damage caused to the plant (five-point scale) ([8]; 1000 g/ha)",other results
"CCn1c(Cn2nccc2OC(F)F)cc(=O)c(C(=O)O)c1-c1ccc(Cl)c(Cl)c1 [Compound 85, 2-(3,4-dichlorophenyl)-6-[[5-(difluoromethoxy)pyrazol-1-yl]methyl]-1-ethyl-4-oxo-pyridine-3-carboxylic acid]",0,0,1 (1=0-20%),4 (4=61-80%),0,4 (4=61-80%),2 (2=21-40%),2 (2=21-40%),0,0,3 (3=41-60%),0,–,–,–,–,–,–,–,–,–
"CCn1c(Cn2cc(Cl)c(C)n2)cc(=O)c(C(=O)O)c1-c1ccc(Cl)c(Cl)c1 [Compound 89, 6-[(4-chloro-3-methyl-pyrazol-1-yl)methyl]-2-(3,4-dichlorophenyl)-1-ethyl-4-oxo-pyridine-3-carboxylic acid]",0,1 (1=0-20%),3 (3=41-60%),–,1 (1=0-20%),2 (2=21-40%),4 (4=61-80%),4 (4=61-80%),0,0,3 (3=41-60%),0,3 (3=41-60%),1 (1=0-20%),4 (4=61-80%),3 (3=41-60%),3 (3=41-60%),4 (4=61-80%),4 (4=61-80%),5 (5=81-100%),"Pre-emergence Test AMAPA, percentage damage caused to the plant (five-point scale) ([9]; 1000 g/ha): 3 (3=41-60%); Pre-emergence Test AMARE, percentage damage caused to the plant (five-point scale) ([10]; 1000 g/ha): 2 (2=21-40%); Pre-emergence Test SETFA, percentage damage caused to the plant (five-point scale) (Setaria faberi (SETFA) [11]; 1000 g/ha): 4 (4=61-80%); Pre-emergence Test ZEAMX, percentage damage caused to the plant (five-point scale) (Zea mays (ZEAMX) [12]; 1000 g/ha): 1 (1=0-20%)"
"CCn1c(Cn2cc(C)cn2)cc(=O)c(C(=O)O)c1-c1ccc(Cl)c(Cl)c1 [Compound 91, 2-(3,4-dichlorophenyl)-1-ethyl-6-[(4-methylpyrazol-1-yl)methyl]-4-oxo-pyridine-3-carboxylic acid]",1 (1=0-20%),1 (1=0-20%),–,0,1 (1=0-20%),0,3 (3=41-60%),–,–,–,–,–,1 (1=0-20%),2 (2=21-40%),0,3 (3=41-60%),4 (4=61-80%),1 (1=0-20%),1 (1=0-20%),0,"Pre-emergence Test AMAPA, percentage damage caused to the plant (five-point scale) ([9]; 1000 g/ha): 1 (1=0-20%); Pre-emergence Test AMARE, percentage damage caused to the plant (five-point scale) ([10]; 1000 g/ha): 1 (1=0-20%); Pre-emergence Test SETFA, percentage damage caused to the plant (five-point scale) (Setaria faberi (SETFA) [11]; 1000 g/ha): 0; Pre-emergence Test ZEAMX, percentage damage caused to the plant (five-point scale) (Zea mays (ZEAMX) [12]; 1000 g/ha): 0"
